Like-named read-outs stand apart in the source and are kept apart here.
Experiments:
Human LDL = assay: Antioxidant activity: oxidation of LDL by CuSO4 (TBARS); assay type: biochemical; details: human LDL oxidized with 10 μM CuSO4, 6 hours, TBARS at 532 nm
plasma cholesterol = assay: Hypocholesterolemic activity in rats on a hypercholesterolemic diet; assay type: in vivo, rat; details: male rats, 4 days, Altromin C 1061 hypercholesterolemic diet, dose which reduces plasma cholesterol by half relative to controls
Method: 2) Hypocholesterolemic activity
Male rates (160-180 g) are subjected for 4 days to an Altromin C 1061 hypercholesterolemic diet, and concomitantly treated orally with compounds suspended in a 2% solution of Tween 80 in distilled water.
On day 5, the animals, which have not fasted, are anesthethized with ethyl ether and exsanguinated by drawing blood at the abdominal aorta onto EDTA. The blood is immediately centrifuged and the plasma stored at 4° C.
Plasma cholesterol is then assayed by the CHOD-PAP method (Boehringer-Mannheim Ref. 237574). The median effective dose (ED50) corresponds to the dose which reduces the plasma cholesterol concentration by half relative to control animals.

[1] = test system: hepatic microsomal lipids (rat liver microsomes); assay: Antioxidant activity: chemical peroxidation of hepatic microsomal lipids (TBARS); assay type: biochemical; details: Fe3+/ADP/dihydroxyfumaric acid
Text: a) Chemical peroxidation.
In the presence of Fe^3+ and ADP, dihydroxyfumaric acid undergoes an autoxidation which generates oxygen free radicals. The latter bring about the peroxidation of hepatic microsomal lipids.

[2] = biological target: ACAT (acyl-CoA:cholesterol O-acyl-transferase enzyme); assay: Inhibition of ACAT in vitro; assay type: biochemical, rat; details: technique of H. Chautan et al.
Text: The compounds were studied for their inhibitory effect on ACAT and hypocholesterolemic effect in rats, on the one hand, and for their antioxidant effect, on the other hand.

[3] = Rattus norvegicus, po, 96 h, read-out: ED50

| Compound | IC50 (Human LDL) [nM] | IC50 [1] [nM] | IC50 [2] [nM] | ED50 (plasma cholesterol; oral) [mg/kg] | ED50 (plasma cholesterol; [3]) [mg/kg] |
| --- | --- | --- | --- | --- | --- |
| CCCCCCCCCCCCSC(C(=O)Nc1cc(C)c(O)c(C)c1C)c1ccccc1 (single isomer, unassigned; (+)) [Compound 16, (+)-2',3',5'-Trimethyl-4'-hydroxy-α-dodecylthio-α-phenylacetanilide] | 4000 |  |  | 0.15 |  |
| CCCCCCCCCCC(C)(C)C(=O)Nc1c(OC)cc(OC)cc1OC [CI 976, reference compound] | 100000 | > 10000 |  |  | 8.3 |
| CCCCCCCCCCCCSCC(=O)Nc1cc(C)c(O)c(C)c1C [Compound 2, 2',3',5'-Trimethyl-4'-hydroxy-α-(dodecylthio)acetanilide] |  | 5000 | 300 |  | > 10 |
| CCCCCCCCCCCCSC(CC)C(=O)Nc1cc(C)c(O)c(C)c1C (stereo not drawn) [Compound 3, 2',3',5'-Trimethyl-4'-hydroxy-α-(dodecylthio)butyranilide] |  | > 10000 | 310 |  | 4 |
| CCCCCCCCCCCCSC(C)(C)C(=O)Nc1cc(C)c(O)c(C)c1C [Compound 8, 2',3',5'-Trimethyl-4'-hydroxy-α-(dodecylthio)isobutyranilide] |  | 3000 | 190 |  | 10 |
| Cc1cc(NC(=O)C(C)(C)Sc2ccc(Cl)cc2)c(C)c(C)c1O [Compound 9, 2',3',5'-Trimethyl-4'-hydroxy-α-(p-chlorophenylthio)isobutyranilide] |  |  | 1120 |  |  |
| Cc1cc(NC(=O)C(C)(C)Oc2ccc(Cl)cc2)c(C)c(C)c1O [Compound 11, 2',3',5'-Trimethyl-4'-hydroxy-α-(p-chlorophenoxy)isobutyranilide] |  |  | 1100 |  |  |
| CCCCCCCCCCCCSC(C(=O)Nc1cc(C)c(O)c(C)c1C)c1ccc(OC)cc1 (stereo not drawn) [Compound 14, 2',3',5'-Trimethyl-4-hydroxy-α-dodecylthio-α-(p-methoxyphenyl)acetanilide] |  |  |  |  | 1 |
| CCCCCCCN(CCCCCSc1nc(-c2ccccc2)c(-c2ccccc2)[nH]1)C(=O)Nc1ccc(F)cc1F [DUP 128, reference compound] | 30000 | > 10000 |  |  | 1.1 |

Second part, led by results:

| IC50 (Human LDL) [nM] | IC50 [1] [nM] | IC50 [2] [nM] | Compound | ED50 (plasma cholesterol; oral) [mg/kg] | ED50 (plasma cholesterol; [3]) [mg/kg] |
| --- | --- | --- | --- | --- | --- |
| 10000 | 500 | 160 | CCCCCCCCCCCCSC(CCCC)C(=O)Nc1cc(C)c(O)c(C)c1C (stereo not drawn) [Compound 4, 2',3',5'-Trimethyl-4'-hydroxy-α-(dodecylthio)hexananilide] |  | 0.5 |
|  | 5000 | 630 | CCCCCCCCCCCCSC(C(=O)Nc1cc(C)c(O)c(C)c1C)C(C)C (stereo not drawn) [Compound 5, 2',3',5'-Trimethyl-4'-hydroxy-α-(dodecylthio)isovaleranilide] |  | 1 |
|  | 300 | 110 | CCCCCCCCCCCCSC(CCC)C(=O)Nc1cc(C)c(O)c(C)c1C (stereo not drawn) [Compound 6, 2',3',5'-Trimethyl-4'-hydroxy-α-(dodecylthio)valeranilide] |  | 1 |
| 13000 | 600 |  | CCCCCCCCCCCCSC(C(=O)Nc1cc(C)c(O)c(C)c1C)c1ccccc1 (stereo not drawn) [Compound 7, 2',3',5'-Trimethyl-4'-hydroxy-α-dodecylthio-α-phenylacetanilide] |  | 0.2 |
| 3000 |  |  | CCCCCCCCCCCC[S+]([O-])C(C)(C)C(=O)Nc1cc(C)c(O)c(C)c1C (stereo not drawn) [Compound 12, 2',3',5'-Trimethyl-4'-hydroxy-α-(dodecylsulfinyl)bobutyranilide] |  |  |
| 10000 | 2300 |  | Vitamin E [reference compound] |  |  |

Source: patent publication US5990173A, “2,3,5-trimethyl-4-hydroxyanilide derivatives, preparation thereof and therapeutical use thereof” (Pierre Fabre Medicament, priority 1995, dated 1999)
